Columns and labels:
Assay in all cases: microbe, parasite or virus in culture
Format in all cases: cell-based
[1] = tested on: Enterobacter hormaechei subsp. oharae SMART 1260; conditions: read-out: Minimal inhibitory concentration
Protocol: (§1) Most isolates and their respective β-lactamase content were characterized by whole-genome sequencing.
(§2) To assess the inhibitory potency of XER, susceptibility testing was performed by broth microdilution method, determining the minimal inhibitory concentrations (MICs) of different antibiotics or antibiotic plus β-lactamase inhibitor combinations, including cefepime (FEP), imipenem (IPM), meropenem (MEM), and their combinations with XER (FEP-XER, IPM-XER, and MEM-XER). All data obtained with XER-based combinations were compared with data with TAN-based combinations, FEP-TAN, IPM-TAN, and MEM-TAN ([16]). FEP was purchased from Sigma-Aldrich (Saint-Louis, USA), whereas MEM was from HuiChem (Shanghai, China). […] MICs were determined in triplicate in cation-adjusted Mueller-Hinton (MH) broth (Bio-Rad, Marnes-la-Coquette, France) according to the CLSI guidelines ([53]). The results were interpreted according to the decrease in MIC value for the same antibiotic or combination of the corresponding recombinant strain producing the MBL enzyme. […] In a recent phase I clinical evaluation, XER was combined with cefiderocol. However, as this latter β-lactam substrate is known to be poorly hydrolyzed by IMP enzymes, it was not considered for the evaluation of XER inhibitory activity in this study. Instead, carbapenems were used as a substrate to evaluate the β-lactamase IMP activity in the presence or absence of XER and TAN, as it was deemed more specific for the IMP carbapenemase activity.

[2] = tested on: Enterobacter hormaechei subsp. steigerwaltii SMART 1234; conditions: read-out: Minimal inhibitory concentration
Protocol: as §1, §2

[3] = tested on: Enterobacter hormaechei subsp. steigerwaltii SMART 1276; conditions: read-out: Minimal inhibitory concentration
Protocol: as §1, §2

[4] = tested on: Enterobacter xiangfangensis SMART 409; conditions: Enterobacter hormaechei, SMART409, read-out: Minimal inhibitory concentration
Protocol: as §1, §2

[5] = tested on: Escherichia coli AZ 1677; conditions: AZ1677, IMP-59, TEM-1, TAN/XER fixed at 4 µg/mL, XER 8 µg/mL in MEM-XER, read-out: Minimal inhibitory concentration
Protocol: as §1, §2

[6] = tested on: Escherichia coli E. coli 7 IMP; conditions: E.COLI7IMP, read-out: Minimal inhibitory concentration
Protocol: as §1, §2

[7] = tested on: Escherichia coli SMART 1132; conditions: SMART1132, IMP-6, CTX-M-2, TAN/XER fixed at 4 µg/mL, XER 8 µg/mL in MEM-XER, read-out: Minimal inhibitory concentration
Protocol: as §1, §2

[8] = tested on: Escherichia coli SMART 1735; conditions: SMART1735, IMP-59, TEM-1, TAN/XER fixed at 4 µg/mL, XER 8 µg/mL in MEM-XER, read-out: Minimal inhibitory concentration
Protocol: as §1, §2

[9] = tested on: Escherichia coli SMART 640; conditions: SMART640, IMP-14, CTX-M-27, OXA-10, TAN/XER fixed at 4 µg/mL, XER 8 µg/mL in MEM-XER, read-out: Minimal inhibitory concentration
Protocol: as §1, §2

[10] = tested on: Klebsiella pneumoniae Kp 5 IMP; conditions: KP5IMP, read-out: Minimal inhibitory concentration
Protocol: as §1, §2

[11] = tested on: Klebsiella pneumoniae SMART 1134; conditions: IMP-34, CTX-M-2, TAN/XER fixed at 4 µg/mL, XER 8 µg/mL in MEM-XER; for MIC: Klebsiella pneumoniae, SMART1134, read-out: Minimal inhibitory concentration
Protocol: as §1, §2

[12] = tested on: Klebsiella pneumoniae SMART 651; conditions: SMART651, read-out: Minimal inhibitory concentration
Protocol: as §1, §2

[13] = tested on: Klebsiella pneumoniae SMART 875; conditions: SMART875, IMP-26, CTX-M-15, TEM-1 like, TAN/XER fixed at 4 µg/mL, XER 8 µg/mL in MEM-XER, read-out: Minimal inhibitory concentration
Protocol: as §1, §2

[14] = tested on: Klebsiella pneumoniae SMART 878; conditions: for MIC: Klebsiella pneumoniae, SMART878, read-out: Minimal inhibitory concentration
Protocol: as §1, §2

[15] = tested on: Klebsiella pneumoniae SMART 882; conditions: for MIC: Klebsiella pneumoniae, SMART882, read-out: Minimal inhibitory concentration
Protocol: as §1, §2

[16] = tested on: Pseudomonas aeruginosa C7; conditions: IMP-7, TAN/XER fixed at 4 µg/mL, XER 8 µg/mL in MEM-XER, read-out: Minimal inhibitory concentration
Protocol: as §1, §2

[17] = tested on: Pseudomonas aeruginosa PA12; conditions: IMP-13, TAN/XER fixed at 4 µg/mL, XER 8 µg/mL in MEM-XER, read-out: Minimal inhibitory concentration
Protocol: as §1, §2

[18] = tested on: Pseudomonas aeruginosa PA13; conditions: IMP-15, TAN/XER fixed at 4 µg/mL, XER 8 µg/mL in MEM-XER, read-out: Minimal inhibitory concentration
Protocol: as §1, §2

[19] = tested on: Pseudomonas aeruginosa PA14; conditions: IMP-18, TAN/XER fixed at 4 µg/mL, XER 8 µg/mL in MEM-XER, read-out: Minimal inhibitory concentration
Protocol: as §1, §2

[20] = tested on: Pseudomonas aeruginosa PA15; conditions: IMP-19, TAN/XER fixed at 4 µg/mL, XER 8 µg/mL in MEM-XER, read-out: Minimal inhibitory concentration
Protocol: as §1, §2

[21] = tested on: Pseudomonas aeruginosa PA16; conditions: IMP-29, TAN/XER fixed at 4 µg/mL, XER 8 µg/mL in MEM-XER, read-out: Minimal inhibitory concentration
Protocol: as §1, §2

[22] = tested on: Serratia marcescens SM1; conditions: IMP-11, TAN/XER fixed at 4 µg/mL, XER 8 µg/mL in MEM-XER, read-out: Minimal inhibitory concentration
Protocol: as §1, §2

| SMILES | MIC [1] [µg/mL] | MIC [2] [µg/mL] | MIC [3] [µg/mL] | MIC [4] [µg/mL] | MIC [5] [µg/mL] | MIC [6] [µg/mL] | MIC [7] [µg/mL] | MIC [8] [µg/mL] | MIC [9] [µg/mL] | MIC [10] [µg/mL] | MIC [11] [µg/mL] | MIC [12] [µg/mL] | MIC [13] [µg/mL] | MIC [14] [µg/mL] | MIC [15] [µg/mL] | MIC [16] [µg/mL] | MIC [17] [µg/mL] | MIC [18] [µg/mL] | MIC [19] [µg/mL] | MIC [20] [µg/mL] | also measured |
| --- | --- | --- | --- | --- | --- | --- | --- | --- | --- | --- | --- | --- | --- | --- | --- | --- | --- | --- | --- | --- | --- |
| CO/N=C(\C(=O)N[C@@H]1C(=O)N2C(C(=O)[O-])=C(C[N+]3(C)CCCC3)CS[C@H]12)c1csc(N)n1 [FEP, cefepime] | 32 | 8 | > 256 | 4 | 8 | > 256 | 128 | 8 | 128 | 256 | 256 | 64 | 64 | 256 | 256 | > 256 | 128 | 128 | 256 | > 256 | MIC [21]: 16 µg/mL; MIC [22]: 4 µg/mL |
| C[C@@H](O)[C@H]1C(=O)N2C(C(=O)O)=C(SCCN=CN)C[C@H]12 [IPM, imipenem] | ≤ 0.25 | ≤ 0.25 | 0.5 | ≤ 0.25 | ≤ 0.25 | 0.5 | ≤ 0.25 | ≤ 0.25 | 0.5 | ≤ 0.25 | 0.5 | 1 | ≤ 0.25 | ≤ 0.25 | ≤ 0.25 | 128 | 8 | 256 | 128 | 256 | MIC [21]: 16 µg/mL; MIC [22]: ≤ 0.25 µg/mL |
| C[C@@H](O)[C@H]1C(=O)N2C(C(=O)O)=C(S[C@@H]3CN[C@H](C(=O)N(C)C)C3)[C@H](C)[C@H]12 [MEM, meropenem] | 1 | 0.5 | 2 | ≤ 0.125 | 0.5 | 1 | 4 | 0.5 | 4 | 0.5 | 16 | 8 | 0.125 | 4 | 4 | 256 | 16 | 64 | 32 | 64 | Minimal inhibitory concentration [11]: 8 µg/mL; Minimal inhibitory concentration ([14]; IMP-26, CTX-M-15, OXA-1, TEM-1 like, TAN/XER fixed at 4 µg/mL, XER 8 µg/mL in MEM-XER): 1 µg/mL; Minimal inhibitory concentration ([15]; IMP-26, CTX-M-15, OXA-1, TAN/XER fixed at 4 µg/mL, XER 8 µg/mL in MEM-XER): 1 µg/mL; MIC [21]: 32 µg/mL; MIC [22]: 2 µg/mL |

Source: PMC12217461 (Antimicrobial Agents and Chemotherapy, 2025)
